Test results from the NIST ThermoML archive (doi:10.1021/je0302304).
Numbers after ± are expanded uncertainties.

Assay: refractive index (Na D-line) (dimensionless); xn = mol fraction of the nth substance listed
Details: 101.32 kPa, Liquid, Standard Abbe refractometry

COCCOCCOCCOCCOC [2,5,8,11,14-pentaoxapentadecane] + CCO
refractive index
Details	288.15 K	298.15 K	308.15 K	318.15 K
x1 = 0.0045	1.3644 ± 0.0003	1.3604 ± 0.0003	1.3564 ± 0.0003	1.3522 ± 0.0003
x1 = 0.0085	1.3656 ± 0.0003	1.3615 ± 0.0003	1.3575 ± 0.0003	1.3533 ± 0.0003
x1 = 0.0125	1.3667 ± 0.0003	1.3627 ± 0.0003	1.3586 ± 0.0003	1.3545 ± 0.0003
x1 = 0.0165	1.3678 ± 0.0003	1.3638 ± 0.0003	1.3598 ± 0.0003	1.3556 ± 0.0003
x1 = 0.0205	1.3689 ± 0.0003	1.3649 ± 0.0003	1.3608 ± 0.0003	1.3567 ± 0.0003
x1 = 0.0305	1.3714 ± 0.0003	1.3674 ± 0.0003	1.3634 ± 0.0003	1.3593 ± 0.0003
x1 = 0.05	1.376 ± 0.0003	1.372 ± 0.0003	1.368 ± 0.0003	1.3641 ± 0.0003
x1 = 0.1	1.3858 ± 0.0003	1.3819 ± 0.0003	1.3779 ± 0.0003	1.3741 ± 0.0003
x1 = 0.15	1.3936 ± 0.0003	1.3897 ± 0.0003	1.3857 ± 0.0003	1.3818 ± 0.0003
x1 = 0.2	1.3999 ± 0.0003	1.396 ± 0.0003	1.392 ± 0.0003	1.3881 ± 0.0003
x1 = 0.25	1.405 ± 0.0003	1.4011 ± 0.0003	1.3971 ± 0.0003	1.3931 ± 0.0003
x1 = 0.3	1.4093 ± 0.0003	1.4053 ± 0.0003	1.4013 ± 0.0003	1.3973 ± 0.0003
x1 = 0.35	1.4129 ± 0.0003	1.4089 ± 0.0003	1.4049 ± 0.0003	1.4009 ± 0.0003
x1 = 0.4	1.4159 ± 0.0003	1.412 ± 0.0003	1.408 ± 0.0003	1.404 ± 0.0003
x1 = 0.45	1.4186 ± 0.0003	1.4146 ± 0.0003	1.4106 ± 0.0003	1.4067 ± 0.0003
x1 = 0.5	1.4209 ± 0.0003	1.417 ± 0.0003	1.413 ± 0.0003	1.409 ± 0.0003
x1 = 0.55	1.423 ± 0.0003	1.419 ± 0.0003	1.415 ± 0.0003	1.411 ± 0.0003
x1 = 0.6	1.4248 ± 0.0003	1.4208 ± 0.0003	1.4168 ± 0.0003	1.4128 ± 0.0003
x1 = 0.6499	1.4264 ± 0.0003	1.4225 ± 0.0003	1.4184 ± 0.0003	1.4144 ± 0.0003
x1 = 0.7	1.4279 ± 0.0003	1.4239 ± 0.0003	1.4199 ± 0.0003	1.4159 ± 0.0003
x1 = 0.7498	1.4292 ± 0.0003	1.4252 ± 0.0003	1.4212 ± 0.0003	1.4172 ± 0.0003
x1 = 0.7999	1.4304 ± 0.0003	1.4264 ± 0.0003	1.4224 ± 0.0003	1.4184 ± 0.0003
x1 = 0.8499	1.4315 ± 0.0003	1.4275 ± 0.0003	1.4234 ± 0.0003	1.4194 ± 0.0003
x1 = 0.8997	1.4326 ± 0.0003	1.4285 ± 0.0003	1.4244 ± 0.0003	1.4204 ± 0.0003
x1 = 0.9496	1.4335 ± 0.0003	1.4294 ± 0.0003	1.4253 ± 0.0003	1.4213 ± 0.0003
x1 = 1	1.4344 ± 0.0003	1.4303 ± 0.0003	1.4262 ± 0.0003	1.4221 ± 0.0003
